From paper PMC9860980, “Pharmacokinetics and Pharmacodynamics (PK/PD) of Corallopyronin A against Methicillin-Resistant Staphylococcus aureus” (Pharmaceutics, 2022)
Where two headings read alike, the source gives them in different places.

Assay: Pharmacokinetics of CorA in plasma of CD-1 mice
Assay type: in vivo
Settings: for Tmax / CL/F / Cmax / MRT / half-life / Vd/F / AUC0-t: CD-1 mice; for Vd/F: read-out: Vz/F_obs
Procedure: For pharmacokinetic (PK) experiments, 6–8-week-old outbred female CD-1 mice (Charles River, Germany) were used. CorA was dissolved in PEG400/phosphate-buffered saline (PBS) (80:20 (v/v)). CorA was administered once daily at 60 mg/kg intraperitoneally (IP), 100 mg/kg IP, 100 mg/kg subcutaneously (SC) and 100 mg/kg perorally (PO). Moreover, CorA was administered at 30 mg/kg IP twice a day (BID) (administration time points t = 0 and 6 h after first dose). Animals (n = 3 per time point) receiving either 60 mg/kg IP or 100 mg/kg IP were euthanized at 10, 15, 30, 60 and 180 min after administration. Animals (n = 3 per time point) receiving 30 mg/kg IP BID were euthanized at 0.167, 0.25, 0.5, 1, 3, 5.75, 6.167, 6.25, 6.5, 7 and 9 h after first administration. Animals (n = 3 per time point) receiving 100 mg/kg SC or 100 mg/kg PO were euthanized at 0.25, 1, 2, 4 and 8 h after administration. At every time point blood was removed from the heart, collected into tubes coated with 0.5 M ethylenediaminetetraacetic acid (EDTA), immediately spun down at 15,870× g for 10 min at 4 °C and the resultant plasma transferred into a new tube. Furthermore, at every time point heart, lung, brain, liver, spleen, kidneys, and thigh muscles were removed and frozen in liquid nitrogen. For animals receiving 100 mg/kg PO also rectum (without feces), pharynx, skin, vaginal tract, subcutaneous fat tissue, visceral fat tissue and tibiae were removed and frozen in liquid nitrogen. Before removing the vaginal tract, a vaginal flush was performed.
CorA plasma concentrations were quantified by HPLC-DAD with an Alliance e2695 separation module and a 2998 PDA detector (Waters, Eschborn, Germany). For the analysis, blood samples were centrifuged for 10 min at 4 °C and 3220× g. The generated plasma (20 µL) was mixed 1:3 with ice-cold acetonitrile, vortexed for 10 s and centrifuged for 25 min at 4 °C and 11,000× g. The supernatant was transferred into a HPLC vial and a sample volume of 5 µL was injected and quantified at a wavelength of 300 nm. A Waters XBridge® Shield RP18 column (3.5 μm, 2.1 × 100 mm, 130 A) was used at 30 °C. Two solvent gradients comprising mobile phase A (acetonitrile/water 5/95 with 5 mM ammonium acetate and 40 μL acetic acid per liter) and mobile phase B (acetonitrile/water 95/5 with 5 mM ammonium acetate and 40 μL acetic acid per liter) with a gradient from 70%A/30%B to 20%A/80%B, stepwise within 30 min and a flow rate of 0.3 mL/min were used. Data were analyzed by Empower 3 software and quantified using an external reference standard. No major matrix effects were seen when mixing ACN containing CorA with plasma.
Caffeine was used as an internal standard.

[1] = female, mouse, plasma, 30 mg/kg IP (BID), mean ± SD
[2] = female, mouse, plasma, 60 mg/kg IP, mean ± SD
[3] = female, mouse, plasma, 100 mg/kg IP, mean ± SD
[4] = female, mouse, plasma, 100 mg/kg PO

Question: What does the source list for `C/C=C/C/C=C(\C)C(O)CC/C(C)=C/C=C(\C)C(=O)c1c(O)cc([C@H](C)CC/C=C/NC(=O)OC)oc1=O` (some centres unmarked) [CorA, Corallopyronin A]?
Answer: time CorA was found in plasma after dosing (100 mg/kg PO): up to 8 h; exposure in plasma lower compared to the same dose administered IP or SC (100 mg/kg PO vs 100 mg/kg IP or SC): 3- to 4 fold; Tmax (female, CD-1, mouse, plasma, ip, 30 mg/kg, 30 mg/kg IP (BID), mean ± SD): 0.19 h; Tmax (female, CD-1, mouse, plasma, ip, 60 mg/kg, 60 mg/kg IP, mean ± SD): 0.19 h; Tmax (female, CD-1, mouse, plasma, ip, 100 mg/kg, 100 mg/kg IP, mean ± SD): 0.19 h; Tmax (female, CD-1, mouse, plasma, po, 100 mg/kg, 100 mg/kg PO): 0.5 ± 0.4 h; Tmax (female, CD-1, mouse, plasma, sc, 100 mg/kg, 100 mg/kg SC, mean ± SD): 3.33 ± 1.2 h; concentration at 8 h (female, CD-1, mouse, plasma, subcutaneous, 100 mg/kg SC, 8 h after dosing): > 10 µg/mL; CL/F [1]: 0.89 mL/min/kg; Cmax [1]: 194 ± 15.6 µg/mL; MRT [1]: 3.61 ± 0.6 h; half-life [1]: 2.33 ± 0.3 h; Vd/F [1]: 0.18 L/kg; CL/F [2]: 1.8 mL/min/kg; Cmax [2]: 416 ± 39.1 µg/mL; MRT [2]: 1.55 ± 0.2 h; half-life [2]: 1.1 ± 0.2 h; Vd/F [2]: 0.17 L/kg; CL/F [3]: 3.43 ± 0.4 mL/min/kg; Cmax [3]: 349 ± 12.4 µg/mL; MRT [3]: 2.51 ± 1 h; half-life [3]: 1.87 ± 0.8 h; Vd/F [3]: 0.54 ± 0.2 L/kg; CL/F [4]: 16.4 ± 4 mL/min/kg; Cmax [4]: 89.8 ± 43.8 µg/mL; MRT [4]: 3.13 ± 0.2 h; half-life [4]: 2.88 ± 0.6 h; AUC0-t (female, mouse, plasma, 100 mg/kg PO, read-out: AUC 0-t): 94 ± 27.1 µg·h/mL; Vd/F [4]: 4.09 ± 1.3 L/kg; Cmax (female, mouse, plasma, 100 mg/kg SC, mean ± SD): 107 ± 59.2 µg/mL; AUC0-t (plasma, 30 mg/kg IP (BID), mean ± SD): 303.88 ± 21.9 µg·h/mL; AUC0-t (plasma, 60 mg/kg IP, mean ± SD): 463.87 ± 18.8 µg·h/mL; AUC0-t (plasma, 100 mg/kg IP, mean ± SD): 339.53 ± 28.4 µg·h/mL; Cmax lower compared to the same dose administered IP (plasma, 100 mg/kg PO vs 100 mg/kg IP): 3- to 4 fold; AUC0-t (plasma, 100 mg/kg SC, mean ± SD): 459.32 ± 238.2 µg·h/mL
